Measured values taken from ChEMBL document CHEMBL3046358, “Multiple Pro-197 substitutions in the acetolactate synthase of rigid ryegrass (Lolium rigidum) and their impact on chlorsulfuron activity and plant growth” (Crop Prot, 2012).

Legend:
Lolium rigidum [1] = experiment: Herbicidal activity against Lolium rigidum accession A01 assessed as emergence rate applied at 4 times pre-emergence recommended rate relative to untreated control; assay type: functional
Lolium rigidum [2] = experiment: Herbicidal activity against Lolium rigidum accession A02 assessed as fresh weight reduction applied at 1 times pre-emergence recommended rate applied in pots where terbufos had been incorporated into the soil relative to untreated control; assay type: functional; parameters: scale not given: the % may be the effect or the level left
Lolium rigidum [3] = experiment: Herbicidal activity against Lolium rigidum accession A06 assessed as fresh weight reduction applied at 1 times pre-emergence recommended rate applied in pots where terbufos had been incorporated into the soil relative to untreated control; assay type: functional; parameters: scale not given: the % may be the effect or the level left
Lolium rigidum [4] = experiment: Herbicidal activity against Lolium rigidum accession A07 assessed as emergence rate applied at 1 times pre-emergence recommended rate relative to untreated control; assay type: functional
Lolium rigidum [5] = experiment: Herbicidal activity against Lolium rigidum accession A09 assessed as emergence rate applied at 1 times pre-emergence recommended rate applied in pots where terbufos had been incorporated into the soil relative to untreated control; assay type: functional
Lolium rigidum [6] = experiment: Herbicidal activity against Lolium rigidum accession A10 assessed as emergence rate applied at 1 times pre-emergence recommended rate applied in pots where terbufos had been incorporated into the soil relative to untreated control; assay type: functional
Lolium rigidum [7] = experiment: Herbicidal activity against Lolium rigidum accession A11 assessed as fresh weight reduction applied at 4 times pre-emergence recommended rate relative to untreated control; assay type: functional; parameters: scale not given: the % may be the effect or the level left
[8] = molecular target: T1, Acetolactate synthase (Lolium rigidum) (UniProt A7XBP7); experiment: Resistance index, ratio of I50 for acetolactate synthase Ala-197/Ala-197 mutant in Lolium rigidum accession A19 leaves extracts to I50 for acetolactate synthase in Lolium rigidum accession A01 leaves extracts
T1 sequence (whole entry): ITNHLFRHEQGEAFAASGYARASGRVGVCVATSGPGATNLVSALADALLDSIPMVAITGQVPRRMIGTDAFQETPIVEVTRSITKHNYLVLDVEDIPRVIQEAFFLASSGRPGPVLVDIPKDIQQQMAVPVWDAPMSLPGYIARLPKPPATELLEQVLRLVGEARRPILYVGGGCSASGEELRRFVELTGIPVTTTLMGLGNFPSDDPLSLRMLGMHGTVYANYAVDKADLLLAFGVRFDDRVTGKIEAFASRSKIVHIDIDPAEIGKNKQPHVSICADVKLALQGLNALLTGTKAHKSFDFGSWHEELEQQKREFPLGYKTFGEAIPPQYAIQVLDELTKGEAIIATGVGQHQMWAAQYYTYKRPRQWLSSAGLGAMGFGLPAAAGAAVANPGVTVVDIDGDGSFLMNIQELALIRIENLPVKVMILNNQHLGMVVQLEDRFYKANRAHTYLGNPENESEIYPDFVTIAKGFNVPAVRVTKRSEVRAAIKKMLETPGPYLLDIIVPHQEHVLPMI

Acetolactate synthase = Acetolactate synthase (Lolium rigidum, UniProt A7XBP7); experiment: Inhibition of acetolactate synthase Ala-197/Ala-197 mutant in Lolium rigidum accession A16 leaves extracts by acetolactate production assay; details: read-out: I50
Lolium rigidum [9] = experiment: Herbicidal activity against Lolium rigidum accession A14 assessed as emergence rate applied at 4 times pre-emergence recommended rate relative to untreated control; assay type: functional
Lolium rigidum [10] = experiment: Herbicidal activity against Lolium rigidum accession A02 assessed as fresh weight reduction applied at 1 times pre-emergence recommended rate relative to untreated control; assay type: functional; parameters: scale not given: the % may be the effect or the level left
Lolium rigidum [11] = experiment: Herbicidal activity against Lolium rigidum accession A12 assessed as emergence rate applied at 4 times pre-emergence recommended rate relative to untreated control; assay type: functional
Lolium rigidum [12] = experiment: Herbicidal activity against Lolium rigidum accession A03 assessed as fresh weight reduction applied at 1 times pre-emergence recommended rate applied in pots where terbufos had been incorporated into the soil relative to untreated control; assay type: functional; parameters: scale not given: the % may be the effect or the level left
Lolium rigidum [13] = experiment: Herbicidal activity against Lolium rigidum accession A12 assessed as fresh weight reduction applied at 1 times pre-emergence recommended rate applied in pots where terbufos had been incorporated into the soil relative to untreated control; assay type: functional; parameters: scale not given: the % may be the effect or the level left

Question: How did the Activity (Lolium rigidum [1]) turn out when `COc1nc(C)nc(NC(=O)NS(=O)(=O)c2ccccc2Cl)n1` [CHLORSULFURON] was run?
Answer: 1%

Question: What about the Activity (Lolium rigidum [2]) of the same compound?
Answer: 100%

Question: And the Activity (Lolium rigidum [3])?
Answer: 0%

Question: What about the Activity (Lolium rigidum [4]) of the same compound?
Answer: 89%

Question: What about the Activity (Lolium rigidum [5]) of the same compound?
Answer: 3%

Question: What about the Activity (Lolium rigidum [6]) of the same compound?
Answer: 3%

Question: And the Activity (Lolium rigidum [7])?
Answer: 90%

Question: What about the Ratio [8] of the same compound?
Answer: 620

Question: What about the IC50 (Acetolactate synthase) of the same compound?
Answer: 7.71 µM

Question: What about the Activity (Lolium rigidum [9]) of the same compound?
Answer: 1%

Question: And the Activity (Lolium rigidum [10])?
Answer: 96%

Question: And the Activity (Lolium rigidum [11])?
Answer: 1%

Question: What about the Activity (Lolium rigidum [12]) of the same compound?
Answer: 99%

Question: And the Activity (Lolium rigidum [13])?
Answer: 100%
